Laboratory results published in paper PMC9246774, “Construction and Functional Evaluation of a Three-Dimensional Blood–Brain Barrier Model Equipped With Human Induced Pluripotent Stem Cell-Derived Brain Microvascular Endothelial Cells” (Pharmaceutical Research, 2022).

Key:
MCTs = test: Inhibition of H+-gradient-promoted [14C] L-lactate transport in the 3D-BBB system; format: cell-based, human; conditions: 20 nM AZD3965; one lane pH 6.0, opposite lane pH 7.4
Protocol: Permeability experiments were performed on day 10, at 48 h after seeding hiPS-BMECs on the plate. After removal of the medium in the capillary channels, the assay buffer (pH 7.4) was added to both sides of the capillary and brain channels and preincubated on the OrganoFlow® for 30 min. The assay buffer containing test drugs was added to the donor side to initiate the assay, and the plate was then incubated on the OrganoFlow® at 37°C for the designated times. Transporter inhibitors were added to both the donor and receiver sides at the start of preincubation. In all permeability experiments, the amount of lucifer yellow transported through the paracellular pathway to the receiver side was measured with a SpectraMax i3x (Molecular Devices, San Jose, CA) as a measure of cell-to-cell tightness. […] The apparent permeability coefficient (Papp) was calculated as follows: Papp=(dQ/dt)/D0×S
On day 10, remove the medium in the capillary lane of the 3D-BBB system. After removal, 100 µL of assay buffer (50 µL in each Well ➀, ②, ⑤ and ⑥) was added to the capillary and brain lane for washing. […] At 3.5 hr after the start of permeability experiment, the transport amount of lucifer yellow on the receiver side was measured to check for leakage, and all donor and receiver were collected at 4 hr.

[1] = Permeability experiments in the 3D-BBB system (hiPS-BMECs on OrganoPlate 3-lane); conditions: human
Protocol: (§1) The 3D-BBB system using the OrganoPlate® 3-lane plate was constructed with some modifications to the protocol published by MIMETAS. During the differentiation of hiPS-BMECs, to separate the capillary side from the brain side, extracellular matrix hydrogel composed of 4 mg/mL collagen I (Cultrex 3D Matrix Rat Collagen-I, 5 mg/mL, AMSbio), 100 mM HEPES, and 3.7 mg/mL NaHCO3 was dispensed into the middle lane. The plate was incubated at 37°C for 15 min to polymerize collagen I. After incubation, HBSS (+) without phenol red (Fujifilm Wako) was added to the gel channel to prevent the gel from drying out. […] The suspension was injected into capillary lanes precoated with fibronectin/collagen IV solution (PharmCo-Cell). After seeding the cells, the plate was incubated for 4 h at a tilt to allow the cells to adhere to the gel. After incubation, the medium was added to the capillary channels and the plate was placed on an OrganoFlow® (MIMETAS), switching between a + 7° and − 7° inclination every 8 min to create a bidirectional flow mimicking blood flow. On day 9, the medium in the capillary channels was replaced with fresh ESFM + 1% hPDS containing 10 μM MMP inhibitor.
(§2) Permeability experiments were performed on day 10, at 48 h after seeding hiPS-BMECs on the plate. […] The assay buffer containing test drugs was added to the donor side to initiate the assay, and the plate was then incubated on the OrganoFlow® at 37°C for the designated times. Transporter inhibitors were added to both the donor and receiver sides at the start of preincubation. In all permeability experiments, the amount of lucifer yellow transported through the paracellular pathway to the receiver side was measured with a SpectraMax i3x (Molecular Devices, San Jose, CA) as a measure of cell-to-cell tightness. The protocol for the permeability experiments, including the composition of the assay buffer, is described in detail in the Supplementary Material. The apparent permeability coefficient (Papp) was calculated as follows: Papp=(dQ/dt)/D0×S
(§3) where dQ/dt, D0, and S are the transport velocity of the test drugs, the initial concentration of test drugs on the donor side, and the surface area of the extracellular matrix hydrogel in the middle lane, respectively. The efflux ratio value was calculated from the Papp value in the capillary-to-brain (A-to-B) and brain-to-capillary (B-to-A) directions as follows: Effluxratio=Papp,B-to-A/Papp,A-to-B.
(§4) The test drugs were quantified using a high-performance liquid chromatography (HPLC)-tandem mass spectrometry system composed of a Nexera-XR (Shimazu, Kyoto, Japan) HPLC system connected to a Qtrap4500 (AB Sciex, Foster City, CA, USA) mass spectrometer with an electrospray ionization interface.
(§5) On day 10, remove the medium in the capillary lane of the 3D-BBB system. After removal, 100 µL of assay buffer (50 µL in each Well ➀, ②, ⑤ and ⑥) was added to the capillary and brain lane for washing. After 30 min for washing, 100 µL of a fresh assay buffer containing the drug was added to the donor side (A-to-B direction; 50 µL in each Well ➀ and ②, B-to-A direction; 50 µL in each Well ⑤ and ⑥). In addition, 100 µL of a fresh assay buffer was added to the receiver side (A-to-B direction; 50 µL in each Well ⑤ and ⑥, B-to-A direction; 50 µL in each Well ➀ and ②). Inhibitors were added on both sides of the donor and receiver to avoid a gradient in concentration. At the designed sampling time, 50 µL of assay buffer was collected from the receiver side (A-to-B direction; 25 µL in each Well ⑤ and ⑥, B-to-A direction; 25 µL in each Well ➀ and ②), and 50 µL of a fresh assay buffer was added.

[2] = Permeability in the hydrogel without hiPS-BMECs (OrganoPlate 3-lane); format: in vitro ADME; conditions: pH 7.4, upper limit of the system, data not shown
BCRP = test: Permeability experiments in the 3D-BBB system (hiPS-BMECs on OrganoPlate 3-lane); conditions: human, pH 7.4, with Ko143 1 µM (BCRP inhibitor), Efflux ratio (B-to-A/A-to-B), + 1 μM Ko143 (BCRP inhibitor)
Protocol: as §1, §2, §3, §4, §5

hiPS-BMECs [3] = test: as above
Protocol: as §1, §2, §3, §4, §5

[4] = tested on: monkey in vitro BBB model; design: method as in PMID 34575559; conditions: cited from earlier work
human BBB = tested on: human BBB; design: method as in PMID 24947467; conditions: prediction for human BBB; cited from earlier work
hiPS-BMECs [5] = conditions: cited from earlier work
[6] = pH 7.4, Efflux ratio (B-to-A/A-to-B), Control

Cc1[nH]nc(C(F)(F)F)c1Cc1sc2c(c1C(=O)N1C[C@](C)(O)CO1)c(=O)n(C)c(=O)n2C(C)C [AZD3965]
Reduction of [14C] L-lactate transport promoted by the H+-gradient (MCTs): approximately 60%

Cc1cc(=O)n(-c2ccccc2)n1C [Antipyrine]
Papp A→B at 4 h ([1]; pH 7.4): 33.4 ×10⁻⁶ cm/s
Papp B→A at 4 h ([1]; pH 7.4): 35.1 ×10⁻⁶ cm/s
efflux ratio at 4 h [1, 6]: 1.05
Papp at 4 h [2]: 59.2 ×10⁻⁶ cm/s

Nc1nc(Cl)nc2c1ncn2[C@H]1C[C@H](O)[C@@H](CO)O1 [Cladribine]
Papp A→B at 4 h ([1]; pH 7.4): 2.69 ×10⁻⁶ cm/s
Papp B→A at 4 h ([1]; pH 7.4): 15.1 ×10⁻⁶ cm/s
efflux ratio at 4 h [1, 6]: 5.6
efflux ratio at 4 h (BCRP): 1.45
Efflux ratio (B-to-A/A-to-B) (hiPS-BMECs [3]; Control): 5.61

NCC1(CC(=O)O)CCCCC1 [Gabapentin]
Papp A→B at 4 h ([1]; pH 7.4): 16 ×10⁻⁶ cm/s
Papp B→A at 4 h ([1]; pH 7.4): 6.4 ×10⁻⁶ cm/s
efflux ratio at 4 h ([1]; pH 7.4): 0.401

C=C[C@H]1C[N@@]2CC[C@H]1C[C@@H]2[C@@H](O)c1ccnc2ccc(OC)cc12 [Quinidine]
Papp A→B at 4 h ([1]; pH 7.4): 21.6 ×10⁻⁶ cm/s
Papp B→A at 4 h ([1]; pH 7.4): 22.8 ×10⁻⁶ cm/s
efflux ratio at 4 h [1, 6]: 1.06
Efflux ratio [4]: approximately 1.7
Efflux ratio (human BBB): ~13.4

NC(N)=NCCC[C@H](N)C(=O)O [[^3H] L-Arginine, Arginine, L-[2,3,4-^3H]]
Efflux ratio (B-to-A/A-to-B) (hiPS-BMECs [3]; Control): 0.410
Papp B-to-A (hiPS-BMECs [3]; Control, brain-to-capillary, pH 7.4): 5.77 × 10^–6 cm/s
Papp A-to-B (hiPS-BMECs [3]; Control, capillary-to-brain, pH 7.4): 14.1 × 10^–6 cm/s

[14CH3][14CH](O)[14C](=O)[O-].[Na+] [[^14C] L-Lactate, Lactic acid sodium salt, L-[^14C(U)]]
Efflux ratio (B-to-A/A-to-B) (hiPS-BMECs [3]; A: pH 6.0—B: pH 7.4): 0.257
Papp A-to-B (hiPS-BMECs [3]; A: pH 6.0—B: pH 7.4): 34.1 × 10^–6 cm/s
Papp B-to-A (hiPS-BMECs [3]; A: pH 6.0—B: pH 7.4): 8.74 × 10^–6 cm/s
Papp A-to-B (hiPS-BMECs [3]; A: pH 6.0—B: pH 7.4, + 20 nM AZD3965): 12.0 × 10^–6 cm/s
Efflux ratio (B-to-A/A-to-B) (hiPS-BMECs [3]; A: pH 7.4—B: pH 6.0): 3.07
Papp A-to-B (hiPS-BMECs [3]; A: pH 7.4—B: pH 6.0): 7.68 × 10^–6 cm/s
Papp B-to-A (hiPS-BMECs [3]; A: pH 7.4—B: pH 6.0): 23.6 × 10^–6 cm/s
Papp B-to-A (hiPS-BMECs [3]; A: pH 7.4—B: pH 6.0, + 20 nM AZD3965): 9.60 × 10^–6 cm/s
Efflux ratio (B-to-A/A-to-B) (hiPS-BMECs [3]; A: pH 7.4—B: pH 7.4): 0.944
Papp A-to-B (hiPS-BMECs [3]; A: pH 7.4—B: pH 7.4): 19.1 × 10^–6 cm/s
Papp B-to-A (hiPS-BMECs [3]; A: pH 7.4—B: pH 7.4): 18.1 × 10^–6 cm/s

lucifer yellow
Block of leakage by hiPS-BMECs (hiPS-BMECs [3]): more than 99%
Papp in 2D culture of hiPS-BMECs (hiPS-BMECs [5]): 0.0845 × 10^–6 cm/s
